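1) Cells in 96-well plates. 2) Compound, 48 h, 5 concentrations. 3) Linear interpolation between surrounding doses. 4) Unreached endpoint = highest concentration. GI50: concentration for 50% inhibition of growth.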 Calls of active or inactive are those of the source. No stated cut-off is given here; in the data, active = GI50 up to about 1.1 µM and inactive = higher.
What was measured:
Experiment in all cases: NCI tumour cell line growth inhibition, 48 h
OVCAR-3 = test system: OVCAR-3
SK-MEL-5 = test system: SK-MEL-5
OVCAR-4 = test system: OVCAR-4
U-251 = test system: U-251
SN12C = test system: SN12C
BT-549 = test system: BT-549
SF-268 = test system: SF-268
SNB-75 = test system: SNB-75
SW-620 = test system: SW-620
NCI-H226 = test system: NCI-H226
HCT-15 = test system: HCT-15
HT-29 = test system: HT-29
MCF7 = test system: MCF7
SK-OV-3 = test system: SK-OV-3
KM12 = test system: KM12
ACHN = test system: ACHN
Hs-578T = test system: Hs-578T
HOP-92 = test system: HOP-92
UACC-62 = test system: UACC-62
COLO 205 = test system: COLO 205
A498 = test system: A498
RXF 393 = test system: RXF 393
MDA-N = test system: MDA-N
MDA-MB-231 = test system: MDA-MB-231
CCRF-CEM = test system: CCRF-CEM
SK-MEL-28 = test system: SK-MEL-28
MOLT-4 = test system: MOLT-4
Malme-3M = test system: Malme-3M
SNB-19 = test system: SNB-19
OVCAR-8 = test system: OVCAR-8
RPMI-8226 = test system: RPMI-8226
IGROV-1 = test system: IGROV-1
MDA-MB-435 = test system: MDA-MB-435
PC-3 = test system: PC-3
HCT-116 = test system: HCT-116
SR = test system: SR
NCI/ADR-RES = test system: NCI/ADR-RES
HOP-62 = test system: HOP-62
NCI-H460 = test system: NCI-H460
UO-31 = test system: UO-31
HL-60 = test system: HL-60
NCI-H23 = test system: NCI-H23
NCI-H522 = test system: NCI-H522
SK-MEL-2 = test system: SK-MEL-2
UACC-257 = test system: UACC-257
OVCAR-5 = test system: OVCAR-5
SF-539 = test system: SF-539
786-0 = test system: 786-0
K562 = test system: K562
SF-295 = test system: SF-295
LOX IMVI = test system: LOX IMVI
A549 = test system: A549
DU-145 = test system: DU-145
M14 = test system: M14
T47D = test system: T47D
EKVX = test system: EKVX
HCC 2998 = test system: HCC 2998
CAKI-1 = test system: CAKI-1
TK-10 = test system: TK-10

## O=C1CC(c2cccc([N+](=O)[O-])c2)C2(C(=O)NC(=O)NC2=O)C(c2cccc([N+](=O)[O-])c2)C1 (configuration not stated)
OVCAR-3
  GI50: 13.9 µM (inactive)
SK-MEL-5
  GI50: > 100 µM (inactive)
OVCAR-4
  GI50: > 100 µM (inactive)
U-251
  GI50: > 100 µM (inactive)
SN12C
  GI50: > 100 µM (inactive)
BT-549
  GI50: > 100 µM (inactive)
SF-268
  GI50: 19.7 µM (inactive)
SNB-75
  GI50: > 100 µM (inactive)
SW-620
  GI50: > 100 µM (inactive)
NCI-H226
  GI50: 58.2 µM (inactive)
HCT-15
  GI50: 70.5 µM
HT-29
  GI50: 75.9 µM (inactive)
MCF7
  GI50: 17.3 µM (inactive)
SK-OV-3
  GI50: > 100 µM (inactive)
KM12
  GI50: 27.5 µM (inactive)
ACHN
  GI50: > 100 µM (inactive)
Hs-578T
  GI50: > 100 µM (inactive)
HOP-92
  GI50: 36.5 µM (inactive)
UACC-62
  GI50: 98.4 µM (inactive)
COLO 205
  GI50: > 100 µM (inactive)
A498
  GI50: > 100 µM (inactive)
RXF 393
  GI50: 13.6 µM (inactive)
MDA-N
  GI50: > 100 µM (inactive)
MDA-MB-231
  GI50: > 100 µM (inactive)
CCRF-CEM
  GI50: 32.9 µM (inactive)
SK-MEL-28
  GI50: > 100 µM (inactive)
MOLT-4
  GI50: > 100 µM (inactive)
Malme-3M
  GI50: 0.783 µM (active)
SNB-19
  GI50: > 100 µM (inactive)
OVCAR-8
  GI50: > 100 µM (inactive)
RPMI-8226
  GI50: 31.5 µM (inactive)
IGROV-1
  GI50: 60.7 µM (inactive)
MDA-MB-435
  GI50: > 100 µM (inactive)
PC-3
  GI50: 69.7 µM (inactive)
HCT-116
  GI50: 20.1 µM (inactive)
SR
  GI50: 55.6 µM (inactive)
NCI/ADR-RES
  GI50: > 100 µM (inactive)
HOP-62
  GI50: > 100 µM (inactive)
NCI-H460
  GI50: > 100 µM (inactive)
UO-31
  GI50: 88.3 µM (inactive)
HL-60
  GI50: > 100 µM (inactive)
NCI-H23
  GI50: > 100 µM (inactive)
NCI-H522
  GI50: 78.2 µM (inactive)
SK-MEL-2
  GI50: > 100 µM (inactive)
UACC-257
  GI50: > 100 µM (inactive)
OVCAR-5
  GI50: > 100 µM (inactive)
SF-539
  GI50: > 100 µM (inactive)
786-0
  GI50: > 100 µM (inactive)
K562
  GI50: 67.6 µM (inactive)
SF-295
  GI50: 34.5 µM (inactive)
LOX IMVI
  GI50: 36.8 µM (inactive)
A549
  GI50: > 100 µM (inactive)
DU-145
  GI50: 64.4 µM (inactive)
M14
  GI50: > 100 µM (inactive)

## O=C1Oc2ccccc2C(=O)/C1=C/N1C(=O)/C(=C/c2ccc3c(c2)OCO3)SC1=S
OVCAR-3
  GI50: 0.405 µM (active)
SK-MEL-5
  GI50: 15.7 µM (inactive)
OVCAR-4
  GI50: 20.8 µM (inactive)
U-251
  GI50: 10 µM (inactive)
SN12C
  GI50: 18.2 µM (inactive)
SF-268
  GI50: 13.7 µM (inactive)
SNB-75
  GI50: 11.1 µM (inactive)
SW-620
  GI50: 22.8 µM (inactive)
NCI-H226
  GI50: 11.5 µM (inactive)
HCT-15
  GI50: 15.8 µM
HT-29
  GI50: 21.2 µM (inactive)
MCF7
  GI50: 20.7 µM (inactive)
SK-OV-3
  GI50: 22.5 µM (inactive)
KM12
  GI50: 16.8 µM (inactive)
ACHN
  GI50: 11.8 µM (inactive)
T47D
  GI50: 13.6 µM (inactive)
Hs-578T
  GI50: 1.32 µM (inactive)
UACC-62
  GI50: 28.2 µM (inactive)
COLO 205
  GI50: 20.5 µM (inactive)
A498
  GI50: 3.99 µM (inactive)
RXF 393
  GI50: 17.2 µM (inactive)
MDA-N
  GI50: 24.9 µM (inactive)
MDA-MB-231
  GI50: 25.1 µM (inactive)
CCRF-CEM
  GI50: 26.1 µM (inactive)
SK-MEL-28
  GI50: 17.3 µM (inactive)
MOLT-4
  GI50: 17.5 µM (inactive)
Malme-3M
  GI50: 19.8 µM (inactive)
EKVX
  GI50: 28.5 µM (inactive)
OVCAR-8
  GI50: 17.6 µM (inactive)
RPMI-8226
  GI50: 14.1 µM (inactive)
IGROV-1
  GI50: 13.6 µM (inactive)
MDA-MB-435
  GI50: 18.7 µM (inactive)
PC-3
  GI50: 15.8 µM (inactive)
HCT-116
  GI50: 33.7 µM (inactive)
SR
  GI50: 15.8 µM (inactive)
NCI/ADR-RES
  GI50: 18.5 µM (inactive)
HOP-62
  GI50: 14.6 µM (inactive)
NCI-H460
  GI50: 16.8 µM (inactive)
HL-60
  GI50: 26.9 µM (inactive)
NCI-H23
  GI50: 11.8 µM (inactive)
HCC 2998
  GI50: 17.3 µM (inactive)
NCI-H522
  GI50: 15.8 µM (inactive)
SK-MEL-2
  GI50: 17.2 µM (inactive)
UACC-257
  GI50: 24.3 µM (inactive)
OVCAR-5
  GI50: 16.6 µM (inactive)
SF-539
  GI50: 11.5 µM (inactive)
786-0
  GI50: 43.4 µM (inactive)
K562
  GI50: 16.6 µM (inactive)
SF-295
  GI50: 22.9 µM (inactive)
CAKI-1
  GI50: 17.5 µM (inactive)
LOX IMVI
  GI50: 33.3 µM (inactive)
A549
  GI50: 18.1 µM (inactive)
DU-145
  GI50: 19.1 µM (inactive)
M14
  GI50: 17.9 µM (inactive)

## COc1cc([C@@H]2c3cc4c(cc3[C@@H](NCCNCCO)[C@H]3COC(=O)[C@H]23)OCO4)cc(OC)c1O
SK-MEL-5
  GI50: 1.15 µM (inactive)
OVCAR-4
  GI50: 18.7 µM (inactive)
U-251
  GI50: 0.501 µM (active)
BT-549
  GI50: 1.92 µM (inactive)
SNB-75
  GI50: 1.1 µM (active)
SW-620
  GI50: 2.44 µM (inactive)
NCI-H226
  GI50: 1.12 µM (inactive)
HCT-15
  GI50: 29.5 µM
HT-29
  GI50: 2.86 µM (inactive)
SK-OV-3
  GI50: 1.78 µM (inactive)
KM12
  GI50: 2.55 µM (inactive)
T47D
  GI50: 0.442 µM (active)
Hs-578T
  GI50: 1.89 µM (inactive)
UACC-62
  GI50: 0.644 µM (active)
COLO 205
  GI50: 2.38 µM (inactive)
RXF 393
  GI50: 1.53 µM (inactive)
MDA-N
  GI50: 4.35 µM (inactive)
CCRF-CEM
  GI50: 0.0432 µM (active)
SK-MEL-28
  GI50: 2.14 µM (inactive)
MOLT-4
  GI50: 0.016 µM (active)
SNB-19
  GI50: 0.857 µM (active)
OVCAR-8
  GI50: 2.09 µM (inactive)
IGROV-1
  GI50: 1.05 µM (active)
MDA-MB-435
  GI50: 6.22 µM (inactive)
PC-3
  GI50: 2.67 µM (inactive)
HCT-116
  GI50: 2.4 µM (inactive)
TK-10
  GI50: 6.59 µM (inactive)
NCI/ADR-RES
  GI50: > 100 µM (inactive)
HOP-62
  GI50: 1.5 µM (inactive)
NCI-H460
  GI50: 0.0525 µM (active)
UO-31
  GI50: 11.6 µM (inactive)
NCI-H23
  GI50: 1.24 µM (inactive)
SK-MEL-2
  GI50: 2.15 µM (inactive)
UACC-257
  GI50: 7.85 µM (inactive)
786-0
  GI50: 1.09 µM (active)
K562
  GI50: 1.71 µM (inactive)
CAKI-1
  GI50: 3.78 µM (inactive)
A549
  GI50: 0.785 µM (active)
M14
  GI50: 3.79 µM (inactive)

— ChEMBL document CHEMBL1201862, “PubChem BioAssay data set” (2004)
